Test results from patent publication US20190054051A1, “DOPA Formulations for Treatments of Parkinson's Disease” (The Board of Trustees of the Leland Stanford Junior …, priority 2017, published 2019).

What was measured:
[1] = system: 6-OHDA lesioned mice; assay: Cylinder test, contralateral paw usage (akinesia); assay type: in vivo; conditions: single dose equivalent to 5 mg/Kg DOPA; DOPA = L-DOPA/Benserazide 5 and 10 mg/Kg s/c
[2] = system: p38; assay: Western blot of phospho p38 and total p38 in striatum; assay type: in vivo, mice
Description: After behavioral testing, mice again received their assigned injection and then, 45 minutes later, were decapitated under anesthesia. Tissue samples were processed as follows. Briefly, the brain was dissected, rapidly frozen on dry ice, and stored at −80° C. Striatal tissue was collected from 100 μm coronal slices cut at the level of striatum using a cryostat (Leica CM1950, Leica Biosystems Inc, Buffalo Groove, Ill.). Striatal samples from the intact and the lesioned hemisphere were separately collected in 150p1 of lysis solution (Totally RNA, Ambion, Austin, Tex.). Care was taken to make sure that the tissue samples were collected from similar regions in all the brain samples analyzed, since there are differences in the expression of GRKs from rostral to caudal CPu. […]
Western blots were quantified using band densitometry in Image J software (NIH version). […] Results are represented as group mean±SEM and analyzed using one-way or repeated-measures ANOVA (RM-ANOVA), with post hoc Bonferroni tests. The mouse cylinder test was analyzed with RM-ANOVA, with group (DOPA and DOPA-ranitidine formulations) as a between-group factor and saline vs. DOPA treatment as a within-group factor. AIMs scores were analyzed using the Kruskal Wallis test for pre-testing (DOPA injected animals) and the Mann-Whitney U test for the post-testing sessions (DOPA vs DOPA-ranitidine formulations). […]

[3] = system: pERK, ChAT and H2R; assay: Immunohistochemical co-localization of pERK, ChAT and H2R in striatum; assay type: in vivo, mice; conditions: lesioned striatum
Description: Immunohistochemical analysis was performed with commonly known procedures. Mice were transcardially perfused with ice-cold 4% paraformaldehyde in PBS 45 minutes after challenge with L-DOPA or DOPA-ranitidine formulations. The brain was dissected out, post-fixed in 4% PFA overnight at 4° C., and cryoprotected using 30% sucrose in PBS. Cryoprotected brains were stored at -80° C. For TH immunostaining 30 μm coronal sections were taken around both CPu and substantia nigra, to examine dopaminergic denervation at the level of striatum and neuronal cell body loss at the level of substantia nigra. For pERK, ChAT, FoxP and AFos B expression, only coronal sections at the level of striatum was used. Free-floating coronal sections were blocked in blocking buffer (PBS with 2% BSA, 0.3% TritonX-100) for 1 hr at room temperature with gentle rocking. Sections were then transferred to incubation solution (PBS with 1% BSA, 0.03% TritonX-100) and the respective primary antibody as shown in table 1 and incubated at 4° C. for 24-48 hrs with gentle shaking. The sections were mounted with fluorescein or DAPI containing mounting media and serial z stack images were taken using Zeiss laser scanning confocal microscope LSM 800 at Stanford Cell Sciences Imaging facility. […]

N[C@@H](Cc1ccc(O)c(O)c1)C(=O)O [L-DOPA, L-3,4-dihydroxyphenylalanine]
contralateral paw usage compared to saline treatment [1]: significantly increased contralateral paw usage | p38 phosphorylation in the lesioned hemisphere [2]: increased in the lesioned hemisphere only after DOPA treatment | triple labeling of pERK, ChAT and H2R [3]: Occasional triple labeling
